Assay results as given in US7615543B2, “Treatment and prevention of tissue damage” (Pentraxin Therapeutics Limited, priority 2002, dated 2009).
Read-outs that look alike come from different tables or passages of the source.

Columns and labels:
SAP [1] = molecular target: T1, SAP (Homo sapiens, UniProt P02743); assay: Isothermal calorimetry of CPHPC with SAP; details: read-out: affinity of binding, SAP and CPHPC
Text: This phenomenon contrasts sharply with the behaviour in vivo of the closely related molecule, serum amyloid P component (SAP), the other member of the human pentraxin protein family. SAP shares with CRP the homopentameric structure consisting of 5 identical protomers non-covalently associated in a disc like configuration, with a single calcium-dependent ligand binding site on one face of each subunit. […] The handling of aggregated human SAP in vivo may thus differ markedly from that of aggregated CRP. […] Thus compounds that are both bound by CRP with higher affinity and that cross-link it in more avid stable complexes, may cause accelerated clearance from the plasma in vivo.

SAP [2] = molecular target: T1, SAP; design: human SAP expressed in human SAP transgenic mice; host or cells: human SAP transgenic mice; circulation in vivo; details: cited from earlier work
mouse SAP = molecular target: T2, mouse SAP (Mus musculus, UniProt P12246); details: CPHPC administered to mice; cited from earlier work
T2 construct: host or cells: mice, endogenous circulating SAP
T2 sequence (P12246 21-224): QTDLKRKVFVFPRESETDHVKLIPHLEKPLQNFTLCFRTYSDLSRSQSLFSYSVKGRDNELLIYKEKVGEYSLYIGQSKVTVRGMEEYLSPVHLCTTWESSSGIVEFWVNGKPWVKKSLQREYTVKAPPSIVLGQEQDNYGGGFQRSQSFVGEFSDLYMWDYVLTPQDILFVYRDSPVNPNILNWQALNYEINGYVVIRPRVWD

CRP [3] = molecular target: T3, CRP (Homo sapiens, UniProt P02741); assay: Gel filtration (molecular sieve) chromatography of CRP molecular assembly; assay type: binding; details: 10 fold molar excess of drug
T3 sequence (P02741 19-224): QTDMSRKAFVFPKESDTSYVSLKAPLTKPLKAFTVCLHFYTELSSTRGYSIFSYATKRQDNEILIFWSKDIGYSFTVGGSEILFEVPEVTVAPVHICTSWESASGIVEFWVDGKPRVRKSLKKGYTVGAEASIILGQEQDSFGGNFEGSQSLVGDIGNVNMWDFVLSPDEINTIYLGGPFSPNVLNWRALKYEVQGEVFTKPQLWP
Text: The ligand binding sites on each of the 5 protomers in the CRP molecule are all on the same face of the disc-like pentameric assembly of the native protein.

CRP [4] = molecular target: T3, CRP
Text: The Roche MIRA automated immunoassay for CRP (64) depends on recognition by a monoclonal antibody of a calcium-dependent epitope on the CRP molecule.

T1 sequence (P02743 20-223): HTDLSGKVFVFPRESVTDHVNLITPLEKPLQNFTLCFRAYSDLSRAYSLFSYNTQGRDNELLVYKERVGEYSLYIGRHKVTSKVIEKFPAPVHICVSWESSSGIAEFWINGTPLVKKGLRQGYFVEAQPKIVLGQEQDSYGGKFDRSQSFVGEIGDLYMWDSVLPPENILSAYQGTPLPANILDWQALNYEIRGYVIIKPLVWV

O=C(O)[C@H]1CCCN1C(=O)CCCCC(=O)N1CCC[C@@H]1C(=O)O [CPHPC, (R)-1-[6-[(R)-2-Carboxy-pyrrolidin-1-yl]-6-oxo-hexanoyl]pyrrolidine-2-carboxylic acid]
Kd (SAP [1]): 10 nM
effect on human SAP in vivo (SAP [2]; human SAP transgenic mice): dramatically clears
clearance of SAP-CPHPC complexes from the circulation in vivo (SAP [2]; pairs of SAP molecules cross linked by CPHPC): very rapidly cleared
effect on clearance of mouse SAP in vivo (mouse SAP): does not accelerate clearance

C[N+](C)(C)CCOP(=O)([O-])O [phosphocholine]
Molecular assembly of CRP (CRP [3]): Single pentamers

D-Pro-hexanoyl-phosphocholine [DPHPC]
reduction of MIRA CRP concentration (CRP [4]; CRP 100 mg/l, SAP 100 mg/l (~4 μM), DPHPC 400 μM): 58%
reduction of MIRA CRP concentration (CRP [4]; CRP 100 mg/l, SAP 100 mg/l (~4 μM), DPHPC 2 mM): 89%
reduction of MIRA CRP concentration (CRP [4]; CRP 100 mg/l, SAP 100 mg/l (~4 μM), DPHPC 4 mM): 99%
effect on apparent CRP concentration in MIRA assay (CRP [4]; added to isolated pure CRP, no SAP): slightly reduces
reduction of MIRA CRP value (CRP [4]; pure CRP 100 mg/l (~4 μM), DPHPC 400 μM, no SAP): no effect
reduction of MIRA CRP value (CRP [4]; pure CRP 100 mg/l (~4 μM), DPHPC 4 mM, no SAP): 91%
reduction of MIRA CRP value (CRP [4]; second experiment: ~4 μM CRP, 1 mM DPHPC, SAP 400 nM): 61%
reduction of MIRA CRP value (CRP [4]; second experiment: ~4 μM CRP, 1 mM DPHPC, SAP 800 nM): 61%
reduction of MIRA CRP value (CRP [4]; second experiment: ~4 μM CRP, 1 mM DPHPC, SAP 2 μM): 73%
reduction of MIRA CRP value (CRP [4]; second experiment: ~4 μM CRP, 1 mM DPHPC, SAP about 4 μM): 85%
reduction of MIRA CRP concentration (CRP [4]; second experiment: ~4 μM CRP, 1 mM DPHPC, no SAP): 62%
reduction of MIRA CRP value (CRP [4]; whole serum, SAP and CRP both ~4 μM, 4 mM DPHPC): 44%
enhancement by SAP of the effect of DPHPC alone in MIRA (CRP [4]; whole serum, SAP concentrations lower than 2 μM, 4 mM DPHPC): no enhancement
reduction of MIRA CRP value (CRP [4]; whole serum, ~4 μM CRP, 2 μM SAP, 4 mM DPHPC): 29%
reduction of CRP detectable in MIRA assay (CRP [4]; whole serum, ~4 μM CRP, 4 mM DPHPC, no added SAP): 19%
